Earlier results as cited in patent US20070065374A1, “Nanoparticulate leukotriene receptor antagonist/corticosteroid formulations” (Elan Pharma International Limited, priority 2005, published 2007).
Read-outs that look alike come from different tables or passages of the source.

How the values were obtained:
[1] = for time to peak plasma concentrations: after oral administration
[2] = since the approval of zafirlukast

Structure (SMILES)	effect of food on oral bioavailability ([1]; 5 mg tablet (pediatric dose))	effect of food on oral bioavailability ([1]; 10 mg tablet (adult dose))	time to peak plasma concentrations [1]	reduction of bioavailability by food ([1]; oral, in 75% of patients)	Churg-Strauss syndrome reported [2]
CC(C)(O)c1ccccc1CC[C@@H](SCC1(CC(=O)O)CC1)c1cccc(/C=C/c2ccc3ccc(Cl)cc3n2)c1 [Montelukast]	reduced by food	unaffected by food	approximately three	–	–
COc1cc(C(=O)NS(=O)(=O)c2ccccc2C)ccc1Cc1cn(C)c2ccc(NC(=O)OC3CCCC3)cc12 [Zafirlukast]	–	–	approximately three	approximately 40%	at least eight
